These results are taken from US20150239831A1, “INHIBITORS OF CENTRAL NERVOUS SYSTEM VASOACTIVE INHIBITORY PEPTIDE RECEPTOR 2” (The Trustees Of Columbia University In The City Of New York, priority 2012, published 2015).

Type in all cases: cell-based
What all share (design): expressed in transfected cells; host or cells: HEK293 cells transfected with VIPR2 in pCDNA3.1 (as described)

Assay [1] has as its target T1, VIPR2 (Homo sapiens, UniProt P41587).
T1 sequence (P41587 24-438): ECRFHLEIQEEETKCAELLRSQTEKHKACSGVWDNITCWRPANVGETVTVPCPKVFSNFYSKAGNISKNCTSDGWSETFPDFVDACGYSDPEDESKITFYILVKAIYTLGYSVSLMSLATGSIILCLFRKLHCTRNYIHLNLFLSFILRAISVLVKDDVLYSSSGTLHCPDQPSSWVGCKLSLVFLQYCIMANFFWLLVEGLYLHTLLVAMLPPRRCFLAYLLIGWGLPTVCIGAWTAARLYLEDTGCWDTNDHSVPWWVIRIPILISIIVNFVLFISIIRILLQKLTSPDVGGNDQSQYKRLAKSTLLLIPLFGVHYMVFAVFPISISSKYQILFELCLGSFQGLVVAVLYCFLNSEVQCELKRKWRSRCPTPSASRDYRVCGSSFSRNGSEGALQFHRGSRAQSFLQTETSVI
Put plainly: Inhibition of VIP-induced β-arrestin recruitment (% Activity Arrestin). Summed up: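 HEK293 cells stably expressing β-arrestin2–β-gal EA, transiently transfected with ProLink-tagged hVIPR2, plated overnight; inhibitor added for 2 h at 37 °C, 5% CO2. Receptor–arrestin complementation read by chemiluminescence after 5 min–1 h at room temperature; inhibition of VIP-induced recruitment reported as % activity.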
In general terms: Recruitment of arrestin is a read-out of receptor activation apart from second messengers.

In assay [2] the target is T1, VIPR2. The assay is described as follows: Inhibition of VIP-induced cAMP elevation (% Activity cAMP). In outline: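 HEK293 cells stably transfected with human VIPR2 were incubated with inhibitor and VIP for 30 min, then cAMP was detected by HTRF after at least 1 h at room temperature. The 665/620 nm ratio ×10,000 was calculated.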
Assay [3] addresses T1, VIPR2. Put plainly: % Activity: inhibition of VIP-induced cAMP elevation and β-arrestin recruitment (Table 2). In outline: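 cAMP: HEK293 stably expressing hVIPR2, inhibitor plus VIP 30 min, cAMP by HTRF (665/620 nm ratio ×10,000). β-arrestin: HEK293 with β-arrestin2-β-gal-EA, transiently transfected with VIPR2-ProLink; inhibitor 2 h at 37° C, enzyme complementation read by luminescence.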

Molecules are shown by their SMILES.

What is called inhibition is the relative decrease from the control value, in per cent. As to `O=C(N[C@H]1c2ccccc2C[C@H]1O)[C@H](Cc1ccccc1)C[C@H](O)CNS(=O)(=O)c1ccc(C(=O)N2CCOCC2)cc1` [Compound X099], in assay [1] (Batch 3), the inhibition at 0.5 µM amounted to 4.1%, the inhibition at 1 µM is 1.8% and the inhibition at 5 µM is -5.4%. Also, in assay [2] (Batch 3), the inhibition at 0.5 µM is -1.4%, the inhibition at 1 µM turned out to be 0.1% and the inhibition at 5 µM came to 25.5%. In addition, the “% Activity” value in assay [3] amounted to 10.05%.
With `CCCCNC(=O)c1ccc(S(=O)(=O)NC[C@@H](O)C[C@@H](Cc2ccccc2)C(=O)N[C@H]2c3ccccc3C[C@H]2O)cc1` [Compound X100], in assay [1] (Batch 3), the inhibition at 0.5 µM was -0.4%, the inhibition at 1 µM was 2.9% and the inhibition at 5 µM was -5.5%. In addition, in assay [2] (Batch 3), the inhibition at 0.5 µM is -0.4%, the inhibition at 1 µM turned out to be 5.9% and the inhibition at 5 µM came to 20.6%. For the same molecule, the “% Activity” value in assay [3] came out at 7.55%.
For `O=C(N[C@H]1c2ccccc2C[C@H]1O)[C@H](Cc1ccccc1)C[C@H](O)CNS(=O)(=O)c1ccc(C(=O)N2CCCCC2)cc1` [Compound X101], in assay [1] (Batch 3), the inhibition at 0.5 µM is 0%, the inhibition at 1 µM was -17.3% and the inhibition at 5 µM is -12.3%. In assay [2] (Batch 3), the inhibition at 0.5 µM was -6.3%, the inhibition at 1 µM was -7.3% and the inhibition at 5 µM was -1.4%. For the same molecule, the “% Activity” value in assay [3] is listed as −6.85%.
In the case of `O=C(NC[C@@H](O)C[C@@H](Cc1ccccc1)C(=O)N[C@H]1c2ccccc2C[C@H]1O)c1c(Cl)cc(Cl)cc1Cl` [D], in assay [1] (Batch 1), the inhibition at 0.5 µM came to 23.9%, the inhibition at 1 µM came to 25.3% and the inhibition at 5 µM was 31.5%. In addition, in assay [2] (Batch 1), the inhibition at 0.5 µM was 17.6%, the inhibition at 1 µM was 14.8% and the inhibition at 5 µM is 12.3%. For the same molecule, the “% Activity” value in assay [3] is reported as 21.9%.
As to `O=C(NC[C@@H](O)C[C@@H](Cc1ccccc1)C(=O)N[C@H]1c2ccccc2C[C@H]1O)c1ccccc1[N+](=O)[O-]` [G], in assay [1] (Batch 1), the inhibition at 0.5 µM turned out to be 36.4%, the inhibition at 1 µM is 35.1% and the inhibition at 5 µM came out at 26.1%. Further, in assay [2] (Batch 1), the inhibition at 0.5 µM is 17.6%, the inhibition at 1 µM came to 14.3% and the inhibition at 5 µM stood at 9.1%. In addition, the “% Activity” value in assay [3] is on record as 17.6%.
On to `COc1cc(C(=O)NC[C@@H](O)C[C@@H](Cc2ccccc2)C(=O)N[C@H]2c3ccccc3C[C@H]2O)cc(OC)c1OC` [H], for which, in assay [1] (Batch 1), the inhibition at 0.5 µM turned out to be 29.6%, the inhibition at 1 µM was 37.2% and the inhibition at 5 µM turned out to be 18%. In assay [2] (Batch 1), the inhibition at 0.5 µM came out at 15.6%, the inhibition at 1 µM came to 20% and the inhibition at 5 µM came to 9.3%. For the same molecule, in assay [3], the “% Activity” value is 13.65%.
In the case of `CC(C)c1cc(C(C)C)c(S(=O)(=O)NC[C@@H](O)C[C@@H](Cc2ccccc2)C(=O)N[C@H]2c3ccccc3C[C@H]2O)c(C(C)C)c1` [J], in assay [1] (Batch 1), the inhibition at 0.5 µM came to 29.7%, the inhibition at 1 µM amounted to 30.9% and the inhibition at 5 µM was 8.3%. Moreover, in assay [2] (Batch 1), the inhibition at 0.5 µM turned out to be 19.5%, the inhibition at 1 µM was found to be 18.6% and the inhibition at 5 µM was found to be 90%. The “% Activity” value in assay [3] was 49.15%.
With `O=C(N[C@H]1c2ccccc2C[C@H]1O)[C@H](Cc1ccccc1)C[C@H](O)CNS(=O)(=O)c1cccc([N+](=O)[O-])c1` [L], in assay [1] (Batch 1), the inhibition at 0.5 µM is 24.2%, the inhibition at 1 µM was 35.1% and the inhibition at 5 µM was found to be 33.4%. In assay [2] (Batch 1), the inhibition at 0.5 µM was 18.4%, the inhibition at 1 µM is 15.2% and the inhibition at 5 µM was 21.3%. Further, the “% Activity” value in assay [3] is listed as 27.35%.
For `O=C(NC[C@@H](O)C[C@@H](Cc1ccccc1)C(=O)N[C@H]1c2ccccc2C[C@H]1O)c1cccc([N+](=O)[O-])c1` [M], in assay [1] (Batch 1), the inhibition at 0.5 µM was 19.9%, the inhibition at 1 µM was found to be 7.4% and the inhibition at 5 µM is -4%. Moreover, in assay [2] (Batch 1), the inhibition at 0.5 µM was 11.8%, the inhibition at 1 µM was determined as 11% and the inhibition at 5 µM turned out to be 13.5%. Besides, the “% Activity” value in assay [3] was determined as 4.75%.
In the case of `Cc1ccc(S(=O)(=O)NC[C@@H](O)C[C@@H](Cc2ccccc2)C(=O)N[C@H]2c3ccccc3C[C@H]2O)c(C)c1` [N], in assay [1] (Batch 1), the inhibition at 0.5 µM is 2.8%, the inhibition at 1 µM stood at 20.3% and the inhibition at 5 µM came to 31.8%. For the same molecule, in assay [2] (Batch 1), the inhibition at 0.5 µM was 14.1%, the inhibition at 1 µM is 10.9% and the inhibition at 5 µM was 23.3%. The “% Activity” value in assay [3] is 27.55%.
On to `O=C(NC[C@@H](O)C[C@@H](Cc1ccccc1)C(=O)N[C@H]1c2ccccc2C[C@H]1O)c1cccc(CCl)c1` [O], for which, in assay [1] (Batch 1), the inhibition at 0.5 µM was -8.1%, the inhibition at 1 µM was 5.7% and the inhibition at 5 µM is -10.3%. Besides, in assay [2] (Batch 1), the inhibition at 0.5 µM came to 0.5%, the inhibition at 1 µM amounted to 2.3% and the inhibition at 5 µM came to 15.1%. Also, the “% Activity” value in assay [3] was found to be 2.4%.
On to `Cc1ccc([N+](=O)[O-])cc1S(=O)(=O)NC[C@@H](O)C[C@@H](Cc1ccccc1)C(=O)N[C@H]1c2ccccc2C[C@H]1O` [P], for which, in assay [1] (Batch 1), the inhibition at 0.5 µM is -12%, the inhibition at 1 µM is -3.8% and the inhibition at 5 µM is -0.6%. Also, in assay [2] (Batch 1), the inhibition at 0.5 µM worked out at 10.9%, the inhibition at 1 µM is 13.6% and the inhibition at 5 µM was found to be 18.3%. Besides, the “% Activity” value in assay [3] is 8.85%.
On to `O=C(NC[C@@H](O)C[C@@H](Cc1ccccc1)C(=O)N[C@H]1c2ccccc2C[C@H]1O)c1cccc(Br)c1` [Q], for which, in assay [1] (Batch 1), the inhibition at 0.5 µM was -3.8%, the inhibition at 1 µM is 6.8% and the inhibition at 5 µM is 5.2%. For the same molecule, in assay [2] (Batch 1), the inhibition at 0.5 µM is 17.4%, the inhibition at 1 µM worked out at 18.5% and the inhibition at 5 µM stood at 20.3%. For the same molecule, the “% Activity” value in assay [3] stood at 12.75%.
With `O=C(N[C@H]1c2ccccc2C[C@H]1O)[C@H](Cc1ccccc1)C[C@H](O)CNS(=O)(=O)c1ccccc1C(F)(F)F` [R], in assay [1] (Batch 1), the inhibition at 0.5 µM is 10.7%, the inhibition at 1 µM is 24.8% and the inhibition at 5 µM was 21%. Further, in assay [2] (Batch 1), the inhibition at 0.5 µM stood at 23%, the inhibition at 1 µM was found to be 18.8% and the inhibition at 5 µM was found to be 24.7%. Further, the “% Activity” value in assay [3] came to 22.85%.
As for `COc1ccc(S(=O)(=O)NC[C@@H](O)C[C@@H](Cc2ccccc2)C(=O)N[C@H]2c3ccccc3C[C@H]2O)cc1OC` [S], in assay [1] (Batch 1), the inhibition at 0.5 µM is 10.5%, the inhibition at 1 µM came to 23.2% and the inhibition at 5 µM was found to be 32%. In assay [2] (Batch 1), the inhibition at 0.5 µM is 21.1%, the inhibition at 1 µM came out at 20.4% and the inhibition at 5 µM came to 28.2%. Moreover, in assay [3], the “% Activity” value is on record as 30.1%.
`O=C(N[C@H]1c2ccccc2C[C@H]1O)[C@H](Cc1ccccc1)C[C@H](O)CNS(=O)(=O)c1ccccc1F` [T]: in assay [1] (Batch 1), the inhibition at 0.5 µM amounted to 5.3%, the inhibition at 1 µM was determined as 28.3% and the inhibition at 5 µM is 52%. In addition, in assay [2] (Batch 1), the inhibition at 0.5 µM was 28.6%, the inhibition at 1 µM was 22.3% and the inhibition at 5 µM is 28.3%. The “% Activity” value in assay [3] was determined as 40.15%.
